Source: PMC3486420, “In Vitro and In Vivo Characterizations of Chiglitazar, a Newly Identified PPAR Pan-Agonist” (PPAR Research, 2012)

Columns and labels:
[1] = biological target: T1, PPARα (Homo sapiens, UniProt Q07869); assay: PPARα transactivation reporter gene assay in U2OS cells; type: cell-based
T1 sequence (Q07869 1-468): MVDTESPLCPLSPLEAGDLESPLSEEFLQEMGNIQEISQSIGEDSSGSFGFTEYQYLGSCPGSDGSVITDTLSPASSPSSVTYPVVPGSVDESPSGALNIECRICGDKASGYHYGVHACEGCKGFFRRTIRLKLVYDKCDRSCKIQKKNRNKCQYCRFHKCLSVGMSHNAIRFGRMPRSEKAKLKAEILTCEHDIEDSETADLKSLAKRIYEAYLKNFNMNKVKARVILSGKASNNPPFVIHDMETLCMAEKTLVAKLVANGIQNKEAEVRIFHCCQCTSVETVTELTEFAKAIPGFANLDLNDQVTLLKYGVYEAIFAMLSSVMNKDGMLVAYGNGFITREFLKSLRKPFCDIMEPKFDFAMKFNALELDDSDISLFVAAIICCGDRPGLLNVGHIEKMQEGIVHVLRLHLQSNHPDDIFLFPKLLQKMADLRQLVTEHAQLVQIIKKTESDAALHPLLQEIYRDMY
T1 sequence (P19793 1-462 partner): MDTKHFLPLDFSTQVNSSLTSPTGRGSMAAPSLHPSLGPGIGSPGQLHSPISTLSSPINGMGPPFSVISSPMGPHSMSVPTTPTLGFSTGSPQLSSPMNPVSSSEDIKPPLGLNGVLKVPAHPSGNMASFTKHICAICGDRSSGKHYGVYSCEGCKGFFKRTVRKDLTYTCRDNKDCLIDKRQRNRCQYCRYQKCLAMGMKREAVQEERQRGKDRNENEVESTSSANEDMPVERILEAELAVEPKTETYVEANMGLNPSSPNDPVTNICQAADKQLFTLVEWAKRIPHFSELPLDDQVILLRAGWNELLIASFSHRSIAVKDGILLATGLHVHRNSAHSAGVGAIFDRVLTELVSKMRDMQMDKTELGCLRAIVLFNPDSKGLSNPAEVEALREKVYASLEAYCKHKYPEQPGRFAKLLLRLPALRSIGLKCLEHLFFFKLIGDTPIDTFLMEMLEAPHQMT

[2] = system: RAW267.4 cells; assay: Gene expression by RT-PCR in RAW267.4 cells; type: cell-based, mouse; conditions: 48 h, 10 μM chiglitazar
From the text: (§1) cDNAs for human retinoid X receptor (hRXR), PPARα, PPARγ, and PPARδ were obtained by reverse transcriptase polymerase chain reaction (RT-PCR) from human liver or adipose tissues. Amplified cDNAs were cloned into pcDNA3.1 expression vector (Invitrogen, Carlsbad, CA, USA). The integrity and fidelity of all constructs made were verified by DNA sequencing. Luciferase reporter plasmids, ACOX promoter for PPARγ and pHD(X3)-luc for PPARα, were kind gifts of Drs. TM McIntyre (University of Utah, USA) and RA Rachubinski (University of Alberta, Canada), respectively. PPRE-luc for PPARδ was constructed based on the previous report by insertion of the annealed oligonucleotides having four copies of the CYP4A6 PPRE (4 × […]) into the upstream of the luciferase coding sequence in pGL3-promoter vector (Promega, Madison, WI, USA). pCMVβGal was purchased from Clontech (Palo Alto, CA, USA). The mouse 3T3-L1 preadipocyte cell line, skeletal muscle C2C12 cell line, and macrophage RAW267.4 cell line and the human osteosarcoma U2OS cell line were obtained from the American Type Culture Collection (ATCC, Rockville, MD, USA). The human hepatoma SMMC-7721 cell line was obtained from the Cell Culture Center of Chinese Academy of Medical Sciences (Beijing, China). Cell lines were cultured in medium of DMEM (3T3-L1, C2C12, and SMMC-7721), RPMI 1640 (RAW267.4), or McCoy's 5A (U2OS), containing 10% fetal bovine serum (FBS), 50 μg/mL streptomycin, and 50 units/mL penicillin at 37°C in a humidified incubator with 5% CO2.
(§2) Total RNA was extracted from cells or tissues with an RNeasy minikit (Qiagen, Valencia, CA, USA). The first-strand cDNA was synthesized using the oligo(dT) primers, followed by using SuperScript II reverse transcriptase (Invitrogen) according to the manufacturer's instructions. The PCR amplifications were performed in 10 μL of reaction mixture volume containing 0.8 μL of cDNA, 10 mM Tris-HCl (pH 8.3), 50 mM KCl, 1.5 mM MgCl2, 0.1% Triton X-100, 0.2 mM deoxynucleotide triphosphates, 0.4 μM primers, and 0.25 U of Taq polymerase (TaKaRa Biotechnology Co., Ltd, China). Taq DNA polymerase was added to each tube after a treatment of 2 min at 94°C. This was followed by 22–30 cycles of denaturation (23 s at 94°C), annealing (20 s at 55°C), extension (30 s at 72°C), and a final extension step of 2 min. PCR products were analyzed by electrophoresis on a 1.5% agarose gel stained with ethidium bromide.
Figure 1 In vitro regulation of gene expression by chiglitazar. (a) Endogenous expression of individual PPAR subtypes in cell lines. […]. The expression change of referred genes induced by different compounds was normalized against internal control (36B4 or GAPDH) and then compared with vehicle control treatment. The data shown are averaged from 3 independent experiments.

[3] = system: 3T3-L1 cells; assay: Gene expression by RT-PCR in 3T3-L1 cells; type: cell-based, mouse; conditions: 48 h, 10 μM rosiglitazone, 10 μM chiglitazar, vs vehicle
From the text: as §1, with “The human hepatoma SMMC-7721 cell line was obtained from the Cell Culture Center of Chinese Academy of Medical Sciences (Beijing, China). Cell lines were cultured in medium of DMEM (3T3-L1, C2C12, and SMMC-7721), RPMI 1640 (RAW267.4), or McCoy's 5A (U2OS), containing 10% fetal bovine serum (FBS), 50 μg/mL streptomycin, and 50 units/mL penicillin at 37°C in a humidified incubator with 5% CO2.” left out
Total RNA was extracted from cells or tissues with an RNeasy minikit (Qiagen, Valencia, CA, USA). […] PCR products were analyzed by electrophoresis on a 1.5% agarose gel stained with ethidium bromide. […]

[4] = system: db/db mice; assay: Gene expression by RT-PCR in tissues of treated db/db mice; type: in vivo, mouse; conditions: 14 days oral, chiglitazar 20 mg kg^−1 compared with rosiglitazone 5 mg kg^−1
Method: as §2
Male db/db mice (BKS.Cg-m +/+ LEPR^db) in 6-7 weeks were purchased from The Jackson Laboratory (Bar Harbor, ME, USA). Male KKAy and C57BL/6J mice in 8–10 weeks were obtained from the Institute of Animal Science, Chinese Academy of Medical Sciences and Peking Union Medical College (Beijing, China). […] Plasma glucose levels were examined at various time points by Accu-Chek Advantage II Glucose Strips (Roche Diagnostics, Basel, Switzerland) and measured by Accu-Chek Advantage (Roche Diagnostics). […]

In the case of `O=C(c1ccc(F)cc1)c1ccccc1NC(Cc1ccc(OCCn2c3ccccc3c3ccccc32)cc1)C(=O)O` (stereo not drawn) [Chi, 2-[(2-(4-fluorobenzoyl)phenyl)amino]-3-[4-(2-carbazolylethoxy)-phenyl]-propionic acid], the EC50 ([1]; 24 h treatment, luciferase reporter, hRXR cotransfected, ia: inactive at 10 μM) is reported as 1.2 ± 0.3 µM, the “PPARα % Max” value ([1]; max response compared with WY at 50 μM) is reported as 147% and the “Expression of PPARα and/or PPARδ downstream gene SRA” value ([2]; 50 μM WY14643, 5 μM 2-Bro, compared with rosiglitazone 10 μM) is reported as “more significantly upregulated”. For the same molecule, the “Expression of PPARγ downstream gene CD36” value ([2]; 10 μM rosiglitazone, vs vehicle) was “upregulated”, the “Expression of PPARγ downstream genes SREBP1 and adiponectin” value [3] was “upregulated” and the “Expression of UCP1 in adipose tissue” value [4] was “greater degree of upregulation”.
